Source: patent US6908911B1, “Antibacterial agents” (British Biotech Pharmaceuticals Limited, priority 1999, dated 2005)
≈ marks a conversion by molar mass, not a printed value.

System: E. coli strain DH5α
Test: Minimal inhibitory concentration (MIC) against E. coli
Format: cell-based
Settings: Escherichia coli; 2×YT broth, 37° C., 18 hours; lowest drug concentration that inhibited visible growth
Procedure: Minimal inhibitory concentrations (MIC) of inhibitors against E. coli strain DH5α (Genotype; F-φ80dlacZΔM15Δ(lacZYA-argF)U169 deoR recA1 endA1 hsdR17(rk^−,mk^+)phoA supE44λ^− thi-1 gyrA96 relA1) obtained from GibcoBRL Life Technologies, Enterobacter cloacae (American Type Culture Collection number 13047), Klebsiella pneumoniae (American Type Culture Collection number 13883) or Staphylococcus capitis (American Type Culture Collection number 35661) were determined as follows. Stock solutions of test compound (Compounds 1 and 2 from Examples 1 and 2 respectively (both isomer A)) and three standard laboratory antibiotics, carbenicillin (Sigma, catalogue No. C3416), kanamycin (Sigma, catalogue No. K4000) and chloramphenicol (Sigma, catalogue No. C1919), were prepared by dissolution of each compound in dimethylsulfoxide at 10 mM. […] Cell densities were adjusted to absorbance at 660 nm (A660)=0.1; the optical density-standardised preparations were diluted 1:1000 in 2×YT broth; and each well inoculated with 0.05 ml of the diluted bacteria. […] The MIC (μM) was recorded as the lowest drug concentration that inhibited visible growth.

MIC: 12.5 µM (≈ 3.74 µg/mL)
SMILES: CCCC[C@H](CN(O)C=O)C(=O)N(C)C1CCN(C)CC1 [Example 7]
